Measurements published in patent publication US8399440B2, “Disease modifying anti-arthritic activity of 2-methoxyestradiol” (EntreMed, Inc., priority 2006, dated 2013).

Legend:
estrogen receptor β = estrogen receptor β (Homo sapiens, UniProt Q92731); conditions: LaVallee et al. 2002; cited from earlier work
estrogen receptor α = molecular target: T1, estrogen receptor α (Homo sapiens, UniProt P03372); conditions: LaVallee et al. 2002; cited from earlier work
T1 sequence (P03372 1-595): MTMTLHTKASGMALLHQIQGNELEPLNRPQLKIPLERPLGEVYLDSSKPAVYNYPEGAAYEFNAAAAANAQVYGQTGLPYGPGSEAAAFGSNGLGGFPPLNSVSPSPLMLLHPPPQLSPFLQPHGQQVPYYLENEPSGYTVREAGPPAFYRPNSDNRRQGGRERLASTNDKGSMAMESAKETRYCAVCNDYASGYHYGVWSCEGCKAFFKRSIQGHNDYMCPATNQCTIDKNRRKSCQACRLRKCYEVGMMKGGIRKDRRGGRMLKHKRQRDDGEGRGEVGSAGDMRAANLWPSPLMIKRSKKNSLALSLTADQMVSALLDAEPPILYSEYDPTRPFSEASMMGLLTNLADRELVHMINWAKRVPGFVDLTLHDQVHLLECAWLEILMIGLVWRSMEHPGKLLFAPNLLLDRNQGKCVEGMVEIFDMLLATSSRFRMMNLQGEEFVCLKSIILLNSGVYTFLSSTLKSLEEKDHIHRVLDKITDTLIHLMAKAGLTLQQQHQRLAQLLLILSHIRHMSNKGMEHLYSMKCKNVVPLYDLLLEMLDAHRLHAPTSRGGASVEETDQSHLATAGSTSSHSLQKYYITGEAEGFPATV

[1] = tested on: PMNL migration to dermal inflammatory reactions; test: 51Cr-labeled PMNL migration to dermal inflammatory reactions; assay type: in vivo, Rat (Lewis)
From the text: Rat blood PMNL were isolated from a donor arthritic rat by hydroxyethyl starch (Hespan; Dupont Merck, Wilmington, Del.) exchange transfusion performed through a needle inserted in a femoral vein. The exchanged blood was collected into heparin and acid-citrate-dextrose (ACD, formula A; Fenwal-Travenol, Malton, ON) and the leukocyte-rich plasma was harvested during 1 g sedimentation of red blood cells. The PMNL were then isolated by centrifugation on discontinuous Percoll density gradients of 63% Percoll above 74% Percoll with 10% autologous plasma and calcium and magnesium-free Tyrode's solution (TyS^-/-) for the balance of the suspending medium. […] After the cells were washed, they were injected i.v. into rats at a dose of 10^7 51Cr-labeled PMNL per animal bearing approximately 1-2×10^5 cpm. These cells were allowed to circulate and migrate for 2 h prior to sacrifice of the rats. […] List Biologicals, Campbell, Calif.) or zymosan-activated serum (rat) as a source of […].^22 2 h before sacrifice, administered in the doses indicated at the same time as the i.v. injection of radiolabeled PMNL. The accumulation of PMNL in these sites was quantified by biopsy of the injection sites using a 12-mm punch biopsy taken following sacrifice of the animals. At the time the rats were killed, cardiac blood was obtained to measure the blood leukocyte count and the leukocyte and plasma associated radioactivity. Joints were dissected and segments of limbs sectioned to include carpal, metacarpal, […] metatarsal joints for analysis as previously reported (Issekutz et al. Lab Invest. (1991), 64:656-63 and Issekutz et al. Arthritis Rheum. (2001), 44:1428-37). The content of ^51Cr in the joints, as well as in dermal skin sites and internal organs, was determined with a Wallac LKB 1280 gamma counter (Fisher Scientific, Nepean, ON). Accumulated isotope in the tissue was expressed as cpm/10^6 cpm injected i.v. In the same rats, the migration of PMNL to dermal inflammatory reactions was measured, these reactions being initiated at the time of radiolabeled PMNL injection. Thus the migration quantitated the acute reaction during the first two hours of the lesions.

[2] = tested on: lymph node cells from rats with AA; test: Lymph node cell proliferation in vitro (3H-thymidine incorporation)
Method: Because of the effect of 2ME2 treatment on arthritis severity and the response in the spleen during AA, the T lymphocyte reactivity to mitogens the Mycobacterial purified protein derivative (PPD) antigen was evaluated. […] The effect of various concentrations of 2ME2 in vitro on this proliferative response was evaluated. […] To further assess the effect of 2ME2 on lymphocyte responsiveness, lymph node cells harvested from rats treated with 2ME2 (30 mg/kg/d) from day 6-14 post-immunization were tested for proliferative response to PPD and the mitogens, Con A and PHA and compared to lymphocytes from vehicle-treated animals.

Sequence of estrogen receptor β (Q92731 whole entry): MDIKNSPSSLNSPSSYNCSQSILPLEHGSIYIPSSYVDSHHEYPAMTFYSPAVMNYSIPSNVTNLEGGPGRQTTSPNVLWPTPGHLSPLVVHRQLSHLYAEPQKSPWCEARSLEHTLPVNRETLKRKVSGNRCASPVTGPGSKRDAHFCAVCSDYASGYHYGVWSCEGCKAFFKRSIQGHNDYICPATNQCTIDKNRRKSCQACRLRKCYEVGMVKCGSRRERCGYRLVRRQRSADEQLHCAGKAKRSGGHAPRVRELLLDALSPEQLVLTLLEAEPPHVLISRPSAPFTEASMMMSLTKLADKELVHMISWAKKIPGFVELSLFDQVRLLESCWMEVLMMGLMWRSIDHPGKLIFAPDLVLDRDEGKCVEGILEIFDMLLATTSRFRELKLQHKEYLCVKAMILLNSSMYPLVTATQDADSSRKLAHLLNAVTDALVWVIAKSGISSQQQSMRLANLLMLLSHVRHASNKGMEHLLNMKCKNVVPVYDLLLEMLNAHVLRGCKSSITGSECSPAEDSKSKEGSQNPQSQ

SMILES: COc1cc2c(cc1O)CC[C@@H]1[C@@H]2CC[C@]2(C)[C@@H](O)CC[C@@H]12 [2ME2, 2-methoxyestradiol]
- affinity for estrogen receptor β (estrogen receptor β): low affinity
- affinity for estrogen receptor α (estrogen receptor α): low affinity
- PMNL migration to E. coli LPS ([1]; dermal sites, 2 h migration): did not affect
- PMNL migration to complement chemotactic factor C5ades-arg ([1]; dermal sites, 2 h migration): did not affect
- inhibition of PMNL migration to sites injected with rat TNF-α ([1]; either dose tested (30 or 100 mg/kg/d), starting at day 6 post-immunization): approximately 50%
- inhibition of PMNL migration to sites injected with rat TNF-α ([1]; treatment delayed to day 10, tendency for inhibition): did not reach significance
- IC50, lymphocyte response to PPD ([2]; 2ME2 added on day of culture initiation, 6 days): about 0.3 μg/mL
- viability ([2]; all cultures): ≥ 85 % live cells
- spontaneous proliferation in unstimulated cultures ([2]; in vitro): decreased
- proliferation induced by the mitogens (Con A, PHA) ([2]; in vitro, compared with effect on PPD response): comparable inhibitory effect
- effect on viability ([2]; lymph node cell cultures): no effect on viability
